In patent publication US12281095B2, “Pesticidally active diazine-amide compounds” (SYNGENTA CROP PROTECTION AG, priority 2019, dated 2025):

Experiments:
Assay type in all cases: in vivo
[1] = test system: Diabrotica balteata (Corn Root Worm); test: Example B1: Diabrotica balteata (Corn Root Worm), sprayed maize sprouts; settings: 96 h, application rate of 200 ppm, L2 larvae, 4 days after infestation, read-out: control in at least one of the two categories (mortality or growth inhibition)
Description: Example B1: Diabrotica balteata (Corn Root Worm)
Maize sprouts placed onto an agar layer in 24-well microtiter plates were treated with aqueous test solutions prepared from 10′000 ppm DMSO stock solutions by spraying. After drying, the plates were infested with L2 larvae (6 to 10 per well). The samples were assessed for mortality and growth inhibition in comparison to untreated samples 4 days after infestation.

[2] = test system: Euschistus heros (Neotropical Brown Stink Bug); test: Example B2: Euschistus heros (Neotropical Brown Stink Bug), sprayed soybean leaves; settings: 120 h, application rate of 200 ppm, N2 nymphs, 5 days after infestation, read-out: control in at least one of the two categories (mortality or growth inhibition)
Description: Example B2: Euschistus heros (Neotropical Brown Stink Bug)
Soybean leaves on agar in 24-well microtiter plates were sprayed with aqueous test solutions prepared from 10′000 ppm DMSO stock solutions. After drying the leaves were infested with N2 nymphs. The samples were assessed for mortality and growth inhibition in comparison to untreated samples 5 days after infestation.

[3] = test system: Chilo suppressalis (Striped Rice Stemborer); test: Example B4: Chilo suppressalis (Striped Rice Stemborer), artificial diet; settings: 144 h, application rate of 200 ppm, L2 larvae, 6 days after infestation, read-out: control in at least one of the three categories (mortality, anti-feedant or growth inhibition)
Description: Example B4: Chilo suppressalis (Striped Rice Stemborer)
24-well microtiter plates with artificial diet were treated with aqueous test solutions prepared from 10′000 ppm DMSO stock solutions by pipetting. After drying, the plates were infested with L2 larvae (6-8 per well). The samples were assessed for mortality, anti-feeding effect, and growth inhibition in comparison to untreated samples 6 days after infestation. Control of Chilo suppressalis by a test sample is given when at least one of the categories mortality, anti-feedant effect, and growth inhibition is higher than the untreated sample.

[4] = test system: Plutella xylostella (Diamond Back Moth); test: Example B5: Plutella xylostella (Diamond Back Moth), artificial diet, 24-well; settings: 192 h, application rate of 200 ppm, eggs, 8 days after infestation, read-out: control in at least one of the two categories (mortality or growth inhibition)
Description: Example B5: Plutella xylostella (Diamond Back Moth)
24-well microtiter plates with artificial diet were treated with aqueous test solutions prepared from 10′000 ppm DMSO stock solutions by pipetting. After drying, Plutella eggs were pipetted through a plastic stencil onto a gel blotting paper and the plate was closed with it. The samples were assessed for mortality and growth inhibition in comparison to untreated samples 8 days after infestation.

[5] = test system: Myzus persicae (Green Peach Aphid); test: Example B8: Myzus persicae (Green Peach Aphid): Intrinsic Activity; settings: 120 h, test rate of 12 ppm, sucrose solution, 5 days after infestation
Text: Example B8: Myzus persicae (Green Peach Aphid): Intrinsic Activity
Test compounds prepared from 10′000 ppm DMSO stock solutions were applied by pipette into 24-well microtiter plates and mixed with sucrose solution. The plates were closed with a stretched Parafilm. A plastic stencil with 24 holes was placed onto the plate and infested pea seedlings were placed directly on the Parafilm. The infested plate was closed with a gel blotting paper and another plastic stencil and then turned upside down. The samples were assessed for mortality 5 days after infestation.

[6] = test system: Spodoptera littoralis (Egyptian Cotton Leaf Worm); test: Example B9: Spodoptera littoralis (Egyptian Cotton Leaf Worm), sprayed cotton leaf discs; settings: foliar, 72 h, application rate of 200 ppm, L1 larvae, 3 days after infestation, read-out: control in at least one of the three categories (mortality, anti-feedant or growth inhibition)
[7] = test system: Myzus persicae (Green Peach Aphid); test: Example B12: Myzus persicae (Green Peach Aphid), 96-well sucrose solution; settings: 120 h, application rate of 50 ppm, 5 days after infestation
Text: Example B12: Myzus persicae (Green Peach Aphid)
Test compounds prepared from 10′000 ppm DMSO stock solutions were applied by a liquid handling robot into 96-well microtiter plates and mixed with a sucrose solution. Parafilm was stretched over the 96-well microtiter plate and a plastic stencil with 96 holes was placed onto the plate. Aphids were sieved into the wells directly onto the Parafilm. The infested plates were closed with a gel blotting card and a second plastic stencil and then turned upside down. The samples were assessed for mortality 5 days after infestation.

[8] = test system: Plutella xylostella (Diamondback Moth); test: Example B13: Plutella xylostella (Diamondback Moth), artificial diet, 96-well; settings: 216 h, application rate of 500 ppm, eggs/L1 larvae, 9 days after infestation
Description: Example B13: Plutella xylostella (Diamondback Moth)
96-well microtiter plates containing artificial diet were treated with aqueous test solutions, prepared from 10′000 ppm DMSO stock solutions, by a liquid handling robot. After drying, eggs (˜30 per well) were infested onto a netted lid which was suspended above the diet. The eggs hatch and L1 larvae move down to the diet. The samples were assessed for mortality 9 days after infestation.

[9] = test system: Spodoptera littoralis (Egyptian Cotton Leaf Worm); test: Example B10: Spodoptera littoralis (Egyptian Cotton Leaf Worm), uptake by lettuce roots from agar; settings: 144 h, test rate of 12.5 ppm, compound absorbed by lettuce roots, eggs, 6 days after infestation, read-out: control in at least one of the three categories (mortality, anti-feeding, or growth inhibition)
Text: Example B10: Spodoptera littoralis (Egyptian Cotton Leaf Worm)
Test compounds were applied by pipette from 10′000 ppm DMSO stock solutions into 24-well plates and mixed with agar. Lettuce seeds were placed onto the agar and the multi well plate was closed by another plate which contained also agar. After 7 days the compound was absorbed by the roots and the lettuce grew into the lid plate. The lettuce leaves were then cut off into the lid plate. Spodoptera eggs were pipetted through a plastic stencil onto a humid gel blotting paper and the lid plate was closed with it. The samples were assessed for mortality, anti-feedant effect and growth inhibition in comparison to untreated samples 6 days after infestation.

[10] = test system: Frankliniella occidentalis (Western Flower Thrips); test: Example B3: Frankliniella occidentalis (Western Flower Thrips): Feeding/Contact Activity; settings: 168 h, application rate of 200 ppm, population of mixed ages, 7 days after infestation
Description: Example B3: Frankliniella occidentalis (Western Flower Thrips): Feeding/Contact Activity
Sunflower leaf discs were placed on agar in 24-well microtiter plates and sprayed with aqueous test solutions prepared from […] stock solutions. After drying the leaf discs were infested with a Frankliniella population of mixed ages. The samples were assessed for mortality 7 days after infestation.

CC(NC(=O)c1cc(C(F)(F)F)cc(C2(C#N)CC2)c1)c1nccnc1-c1ncc(OCC(F)(F)F)cn1 (stereo not shown) [P2, 3-(1-cyanocyclopropyl)-N-[1-[3-[5-(2,2,2-trifluoroethoxy)pyrimidin-2-yl]pyrazin-2-yl]ethyl]-5-(trifluoromethyl)benzamide]
≥ 80%: percent control (mortality or growth inhibition) at 200 ppm [1] | percent control (mortality or growth inhibition) at 200 ppm [2] | percent control (mortality, anti-feedant effect or growth inhibition) at 200 ppm [3] | percent control (mortality or growth inhibition) at 200 ppm [4] | mortality at 12 ppm [5] | percent control (mortality, anti-feedant effect or growth inhibition) at 200 ppm [6]

CC(NC(=O)c1cc(C(F)(F)F)cc(C(C)(C)C#N)c1)c1nccnc1-c1ccc(C#N)cn1 (stereo not shown) [P9, 3-(1-cyano-1-methyl-ethyl)-N-[1-[3-(5-cyano-2-pyridyl)pyrazin-2-yl]ethyl]-5-(trifluoromethyl)benzamide]
≥ 80%: percent control (mortality or growth inhibition) at 200 ppm [1] | percent control (mortality, anti-feedant effect or growth inhibition) at 200 ppm [3] | percent control (mortality or growth inhibition) at 200 ppm [4] | mortality at 12 ppm [5] | percent control (mortality, anti-feedant effect or growth inhibition) at 200 ppm [6]

CC(NC(=O)c1cc(C(F)(F)F)cc(C2(C#N)CC2)c1)c1nccnc1-c1ccc(C#N)cn1 (stereo not shown) [P25, 3-(1-cyanocyclopropyl)-N-[1-[3-(5-cyano-2-pyridyl)pyrazin-2-yl]eth-yl]-5-(trifluoromethyl)benzamide]
≥ 80%: percent control (mortality or growth inhibition) at 200 ppm [1] | percent control (mortality, anti-feedant effect or growth inhibition) at 200 ppm [3] | percent control (mortality or growth inhibition) at 200 ppm [4] | percent control (mortality, anti-feedant effect or growth inhibition) at 200 ppm [6] | mortality at 50 ppm [7] | mortality at 500 ppm [8]

CC(NC(=O)c1cc(C(F)(F)F)cc(C2(C#N)CC2)c1)c1nccnc1-c1ncc(OC(F)F)cn1 (stereo not shown) [P32, 3-(1-cyanocyclopropyl)-N-[1-[3-[5-(difluoromethoxy)pyrimidin-2-yl]pyrazin-2-yl]ethyl]-5-(trifluoromethyl)benzamide]
≥ 80%: percent control (mortality or growth inhibition) at 200 ppm [1] | percent control (mortality or growth inhibition) at 200 ppm [2] | percent control (mortality, anti-feedant effect or growth inhibition) at 200 ppm [3] | percent control (mortality or growth inhibition) at 200 ppm [4] | mortality at 12 ppm [5] | percent control (mortality, anti-feedant effect or growth inhibition) at 200 ppm [6] | percent control (mortality, anti-feeding or growth inhibition) at 12.5 ppm [9] | mortality at 50 ppm [7] | mortality at 500 ppm [8]

CC(NC(=O)c1cc(C(F)(F)F)nc(C2(C#N)CC2)c1)c1nccnc1-c1ncc(OCC(F)(F)F)cn1 (stereo not shown) [P34, 2-(1-cyanocyclopropyl)-N-[1-[3-[5-(2,2,2-trifluoroethoxy)pyrimidin-2-yl]pyrazin-2-yl]ethyl]-6-(trifluoromethyl)pyridine-4-carboxamide]
≥ 80%: percent control (mortality or growth inhibition) at 200 ppm [1] | percent control (mortality or growth inhibition) at 200 ppm [2] | percent control (mortality, anti-feedant effect or growth inhibition) at 200 ppm [3] | percent control (mortality or growth inhibition) at 200 ppm [4] | mortality at 12 ppm [5] | percent control (mortality, anti-feedant effect or growth inhibition) at 200 ppm [6] | percent control (mortality, anti-feeding or growth inhibition) at 12.5 ppm [9] | mortality at 50 ppm [7] | mortality at 500 ppm [8]

CC(NC(=O)c1cc(C(F)(F)F)nc(C2(C#N)CC2)c1)c1nccnc1-c1ncc(OC(F)F)cn1 (stereo not shown) [P36, 2-(1-cyanocyclopropyl)-N-[1-[3-[5-(difluoromethoxy)pyrimidin-2-yl]pyrazin-2-yl]ethyl]-6-(trifluoromethyl)pyridine-4-carboxamide]
≥ 80%: percent control (mortality or growth inhibition) at 200 ppm [1] | percent control (mortality or growth inhibition) at 200 ppm [2] | percent control (mortality, anti-feedant effect or growth inhibition) at 200 ppm [3] | percent control (mortality or growth inhibition) at 200 ppm [4] | percent control (mortality, anti-feedant effect or growth inhibition) at 200 ppm [6] | percent control (mortality, anti-feeding or growth inhibition) at 12.5 ppm [9] | mortality at 50 ppm [7] | mortality at 500 ppm [8]

CC(NC(=O)c1cc(C2CC2)cc(C(F)(F)F)c1)c1nccnc1-c1ncc(OCC(F)F)cn1 (stereo not shown) [P37, 3-cyclopropyl-N-[1-[3-[5-(2,2-difluoroethoxy)pyrimidin-2-yl]pyrazin-2-yl]ethyl]-5-(trifluoromethyl)benzamide]
≥ 80%: percent control (mortality or growth inhibition) at 200 ppm [1] | percent control (mortality, anti-feedant effect or growth inhibition) at 200 ppm [3] | percent control (mortality or growth inhibition) at 200 ppm [4] | mortality at 12 ppm [5] | percent control (mortality, anti-feedant effect or growth inhibition) at 200 ppm [6] | mortality at 500 ppm [8]

CC(NC(=O)c1cc(C(F)(F)F)nc(C2(C#N)CC2)c1)c1nccnc1-c1ncc(OCC(F)F)cn1 (stereo not shown) [P40, 2-(1-cyanocyclopropyl)-N-[1-[3-[5-(2,2-difluoroethoxy)pyrimidin-2-yl]pyrazin-2-yl]ethyl]-6-(trifluoromethyl)pyridine-4-carboxamide]
≥ 80%: percent control (mortality or growth inhibition) at 200 ppm [1] | percent control (mortality or growth inhibition) at 200 ppm [2] | percent control (mortality, anti-feedant effect or growth inhibition) at 200 ppm [3] | percent control (mortality or growth inhibition) at 200 ppm [4] | mortality at 12 ppm [5] | percent control (mortality, anti-feedant effect or growth inhibition) at 200 ppm [6] | percent control (mortality, anti-feeding or growth inhibition) at 12.5 ppm [9] | mortality at 50 ppm [7] | mortality at 500 ppm [8]

CC(NC(=O)c1cc(OC(F)F)cc(C2(C#N)CC2)c1)c1nccnc1-c1ccc(C#N)cn1 (stereo not shown) [P44, 3-(1-cyanocyclopropyl)-N-[1-[3-(5-cyano-2-pyridyl)pyrazin-2-yl]ethyl]-5-(difluorometh-oxy)benzamide]
≥ 80%: percent control (mortality or growth inhibition) at 200 ppm [1] | mortality at 200 ppm [10] | percent control (mortality, anti-feedant effect or growth inhibition) at 200 ppm [3] | percent control (mortality or growth inhibition) at 200 ppm [4] | mortality at 12 ppm [5] | percent control (mortality, anti-feedant effect or growth inhibition) at 200 ppm [6]

CC(NC(=O)c1cc(C(F)(F)F)cc(C(C)(C)C#N)c1)c1nccnc1-c1ncc(OCC(F)(F)F)cn1 (stereo not shown) [P47, 3-(1-cyano-1-methyl-ethyl)-N-[1-[3-[5-(2,2,2-trifluoroethoxy)pyrimidin-2-yl]pyrazin-2-yl]ethyl]-5-(trifluoromethyl)benzamide]
≥ 80%: percent control (mortality or growth inhibition) at 200 ppm [1] | percent control (mortality or growth inhibition) at 200 ppm [2] | percent control (mortality, anti-feedant effect or growth inhibition) at 200 ppm [3] | percent control (mortality or growth inhibition) at 200 ppm [4] | mortality at 12 ppm [5] | percent control (mortality, anti-feedant effect or growth inhibition) at 200 ppm [6]
